The test system of assay [1] is resistant variants of P. aeruginosa. The assay is described as follows: microbe, parasite or virus in culture. The assay is classed as cell-based. The conditions noted are these: Pseudomonas aeruginosa, ATCC15442. The source says: (§1) E. coli ATCC25922, P. aeruginosa ATCC27853, S. aureus ATCC29213, S. epidermidis ATCC12228, S. faecalis ATCC29212 and B. subtilis CMCC63501 were obtained from the College of Veterinary Medicine, Northeast Agricultural University (Harbin, China), E. coli K88, E. coli CVCC1515 and P. aeruginosa ATCC15442 were bestowed by Prof. J.H. Wang (Gene Engineering Laboratory, Feed Research Institute, Chinese Academy of Agricultural Sciences Beijing, China) and E. coli UB1005 was kindly provided by Prof. Q.S. Qi (State Key Laboratory of Microbial Technology, Shandong University, China). […] Briefly, 50 µl of approximate 0.5–1 × 10^6 colony forming units (CFU)/ml of cells were diluted in Mueller-Hinton broth and distributed to 96-well plate, 50 µl of twofold peptides were added and the plates was incubated at 37°C for 18–24 h. The MIC values were calculated as the lowest peptide concentration that prevented visible turbidity and negative control of the pure broth without microbes. The tests were performed at least three times in duplicate.

Assay [2] deals with Gram-negative and Gram-positive strains. The assay is described as follows: MIC over all tested strains (range, geometric mean). The assay is classed as cell-based. Set-up: GM (geometric mean of MIC values from all microbial strains): unit not given here. The conditions noted are these: all strains of Table 2.
Description: as §1

For assay [3], the system named is E. coli ATCC25922. Put plainly: MIC in the presence of physiological salts. In kind it is cell-based, Escherichia coli. Details: unit not given here.
Description: as §1
(§2) The stability of peptides was tested in the MIC assay in different environments, including salt sensitivity, human serum, thermal stability and susceptibility to enzymes. For salt sensitivity, 0.5–1 × 10^6 CFU/ml of P. aeruginosa ATCC27853 and E. coli ATCC25922 were treated with peptides, while different salts were added to MHB, and the final concentrations of physiological salts were as follows: 150 mM NaCl, 4.5 mM KCl, 1 mM MgCl2, 6 µM NH4Cl, 8 µM ZnCl2, 4 µM FeCl3 and […] [33]. Except salt sensitivity, only E. coli ATCC25922 was treated with peptides. […] For testing peptide sensitivity to the proteolytic enzymes, the peptides were incubated in advance at 37°C for 1 h with a 1 mg/ml final concentration of the proteolytic enzymes (trypsin, pepsin, papain and proteinase K). For testing thermal stability, incubation occurred at 100°C for 1 h. After these treatments, the procedures were same as MIC assay described above.

The subject of assay [4] is P. aeruginosa ATCC27853. Put plainly: MIC in the presence of physiological salts. In kind it is cell-based, Pseudomonas aeruginosa. Details: unit not given here.
Description: as §1, §2

For assay [5], the system named is E. coli ATCC25922. The assay is described as follows: MIC after treatment with serum, enzymes and heat. The assay is classed as cell-based, Escherichia coli. The following applies: E. coli ATCC25922.
Description: as §1, §2

The test system of assay [6] is E. coli UB1005. The assay is described as follows: Cytoplasmic membrane electrical potential, diSC3-5. The assay is classed as cell-based, Escherichia coli. The conditions noted are these: diSC3-5 release over 600 s. As for the experimental part: Peptides could alter the electrical potential of cytoplasmic membrane, and this potential that was measured by using E. coli UB1005 cells and diSC3-5 (Sigma), a membrane potential-sensitive fluorescent dye, as previously described, [35]. E. coli UB1005 was cultured to logarithmic phase in MHB, harvested by centrifugation, washed twice with buffer (5 mM of HEPES and 20 mM of glucose, pH 7.4) and resuspended to an OD600 of 0.05 in the identical buffer. The dye (diSC3-5) was added to above buffer at a final concentration of 0.4 µM. And the bacteria were incubated to take up the dye for 90 min. KCl was added to a final concentration of 0.1 M for equilibrating K^+ concentration between extracellular and intracellular environment, and then the bacteria were incubated at room temperature for 10 min. The cell suspension (2 ml) was placed in a 1-cm cuvette, and the peptides were added to different concentrations. The fluorescence intensity changes were monitored by using an F-4500 fluorescence spectrophotometer (Hitachi, Japan) with an excitation wavelength of 622 nm and an emission wavelength of 670 nm.

Setting [7] is: all kinds of salts in physiological concentrations.

For `CNC(C)C1CCC(N)C(OC2C(N)CC(N)C(OC3OCC(C)(O)C(NC)C3O)C2O)O1` (stereo not shown) [gentamicin], in assay [1], the MIC was more than 256 µM.
`CC[C@H](C)[C@H](NC(=O)CN)C(=O)NCC(=O)N[C@@H](C)C(=O)N[C@H](C(=O)N[C@@H](CC(C)C)C(=O)N[C@@H](CCCCN)C(=O)N[C@H](C(=O)N[C@@H](CC(C)C)C(=O)N[C@H](C(=O)N[C@H](C(=O)NCC(=O)N[C@@H](CC(C)C)C(=O)N1CCC[C@H]1C(=O)N[C@@H](C)C(=O)N[C@@H](CC(C)C)C(=O)N[C@H](C(=O)N[C@@H](CO)C(=O)N[C@@H](Cc1c[nH]c2ccccc12)C(=O)N[C@H](C(=O)N[C@@H](CCCCN)C(=O)N[C@@H](CCCNC(=N)N)C(=O)N[C@@H](CCCCN)C(=O)N[C@@H](CCCNC(=N)N)C(=O)N[C@@H](CCC(N)=O)C(=O)N[C@@H](CCC(N)=O)C(N)=O)[C@@H](C)CC)[C@@H](C)CC)[C@@H](C)O)[C@@H](C)O)C(C)C)C(C)C` [ME26, melittin, reference compound]: the “GM (geometric mean of MIC values from all microbial strains)” value in assay [2] is given as 2.2. Further, the “MIC, FeCl3” value in assay [3] (4 µM FeCl3 in MHB) and in assay [4] (4 µM FeCl3 in MHB) was 2 each time. Also, the “MIC, NH4Cl” value in assay [3] (6 µM NH4Cl in MHB) and in assay [4] (6 µM NH4Cl in MHB) was 2 throughout. Also, the “MIC, ZnCl2” value was 4 in assay [3] (8 µM ZnCl2 in MHB) and 2 in assay [4] (8 µM ZnCl2 in MHB). Also, the “MIC, MgCl2” value worked out at 4 in assay [3] (1 mM MgCl2 in MHB) and 8 in assay [4] (1 mM MgCl2 in MHB). The “MIC, KCl” value in assay [3] (4.5 mM KCl in MHB) and in assay [4] (4.5 mM KCl in MHB) was 2 throughout. The “MIC, NaCl” value stood at 4 in assay [3] (150 mM NaCl in MHB) and 2 in assay [4] (150 mM NaCl in MHB). Besides, the “MIC, Mix” value in assay [3] (setting [7]) came to 4; in assay [4] (setting [7]) it was 16. The “MIC, CaCl2” value in assay [3] (in MHB) and in assay [4] (2.5 µM CaCl2 in MHB) was 2 in each case. Besides, the “MIC, Control” value in assay [3] (no added salts, unit not given) is recorded as 2; in assay [4] (no added salts, unit not given) it was 2. Besides, in assay [5] (25% human serum in MHB), the “MIC, Serum 25%” value was 8. In assay [5] (50% human serum in MHB), the “MIC, Serum 50%” value is reported as 8. Also, the “MIC, Heat 100°C” value in assay [5] (peptide incubated at 100°C for 1 h) was 2. Also, the “MIC, Enzymes Caroid” value in assay [5] (peptide pre-incubated 1 h at 37°C with 1 mg/ml enzyme (method names papain)) was more than 128. Also, the “MIC, Enzymes Pepsin” value in assay [5] (peptide pre-incubated 1 h at 37°C with 1 mg/ml pepsin) is on record as more than 128. Also, the “MIC, Enzymes Proteinase K” value in assay [5] (peptide pre-incubated 1 h at 37°C with 1 mg/ml proteinase K) is reported as 32. For the same compound, the “MIC, Enzymes Trypsin” value in assay [5] (peptide pre-incubated 1 h at 37°C with 1 mg/ml trypsin) is recorded as more than 128. Also, in assay [6], the “cytoplasmic membrane depolarization (in words)” value is “able to permeabilize the bacterial cell membrane even at a lower concentration than their MICs”.
